Each block holds one compound with its values, some of them ahead of it. Activity calls are given as the source filed them. The calls are words filed in the database; no cut-off is given here.
Tests used:
Type in all cases: functional
Riparian frogs [1] = experiment: Positive inotropic action measured as increase in force of contraction in isolated perfused frog heart at 1 mg/ml; conditions: Hoplobatrachus tigerinus
Riparian frogs [2] = experiment: Positive inotropic action measured as increase in force of contraction in isolated perfused frog heart at 500 ug/ml; conditions: Hoplobatrachus tigerinus
Riparian frogs [3] = experiment: Increase in cardiac output in isolated perfused frog heart at 500 ug/ml; conditions: Hoplobatrachus tigerinus
Riparian frogs [4] = experiment: Increase in cardiac output in isolated perfused frog heart at 1 mg/ml; conditions: Hoplobatrachus tigerinus
Riparian frogs [5] = experiment: Negative chronotropic action measured as decrease in rate of contraction in isolated perfused frog heart; conditions: Hoplobatrachus tigerinus
Riparian frogs [6] = experiment: Positive inotropic action measured as increase in force of contraction in isolated perfused frog heart; conditions: Hoplobatrachus tigerinus
Riparian frogs [7] = experiment: Increase in cardiac output in isolated perfused frog heart; conditions: Hoplobatrachus tigerinus
Riparian frogs [8] = experiment: Negative inotropic action in isolated perfused frog heart; conditions: Hoplobatrachus tigerinus
Riparian frogs [9] = experiment: Decrease in cardiac output in isolated perfused frog heart; conditions: Hoplobatrachus tigerinus
[10] = molecular target: Adrenergic receptor beta (Homo sapiens) (UniProt P08588+P07550+P13945); experiment: Antagonist activity at adrenergic beta receptor assessed as inhibition of adrenalin effect
Riparian frogs [11] = experiment: Effect on cardiac output in isolated perfused frog heart; conditions: Ranidae
Riparian frogs [12] = experiment: Effect on rate of contraction in isolated perfused frog heart; conditions: Hoplobatrachus tigerinus
Riparian frogs [13] = experiment: Effect on force of contraction in isolated perfused frog heart; conditions: Hoplobatrachus tigerinus

SMILES: CCOC(=O)C1=C(C)NC(=O)NC1c1ccc(-c2ccccc2)cc1 (stereo not given)
Activity (Riparian frogs [1]): Active
Activity (Riparian frogs [2]): Active
Activity (Riparian frogs [3]): Active
Activity (Riparian frogs [4]): Active

SMILES: CCOC(=O)C1=C(C)NC(=O)NC1C(C)C (stereo not given)
Activity (Riparian frogs [5]): Dose-dependent effect
Activity (Riparian frogs [6]): Dose-dependent effect
Activity (Riparian frogs [7]): Active

SMILES: CC1=C(C(=O)Oc2ccccc2)C(c2cccc(O)c2)NC(=O)N1 (stereo not given)
Activity (Riparian frogs [5]): Dose-dependent effect
Activity (Riparian frogs [6]): Dose-dependent effect
Activity (Riparian frogs [7]): Active

Activity [10]: Active
SMILES: CCOC(=O)C1=C(C)NC(=O)NC1c1ccccc1Cl (stereo not given)
Activity (Riparian frogs [8]): Active
Activity (Riparian frogs [9]): Active
Activity (Riparian frogs [5]): Active

SMILES: CCOC(=O)C1=C(C)NC(=O)NC1c1ccccc1[N+](=O)[O-] (stereo not given)
Activity (Riparian frogs [11]): inactive
Activity (Riparian frogs [12]): inactive
Activity (Riparian frogs [13]): inactive

SMILES: CCOC(=O)C1=C(C)NC(=O)NC1c1cccc(O)c1 (stereo not given)
Activity (Riparian frogs [5]): Dose-dependent effect
Activity (Riparian frogs [6]): Dose-dependent effect
Activity (Riparian frogs [7]): Active

Activity [10]: Active
SMILES: COC(=O)C1=C(C)NC(=O)NC1c1ccccc1Cl (stereo not given)
Activity (Riparian frogs [8]): Active
Activity (Riparian frogs [9]): Active
Activity (Riparian frogs [5]): Active

SMILES: CCOC(=O)C1=C(C)NC(=O)NC1c1ccc(OC)cc1 (stereo not given)
Activity (Riparian frogs [5]): Active
Activity (Riparian frogs [6]): Active
Activity (Riparian frogs [7]): Active

SMILES: CCOC(=O)C1=C(C)NC(=O)NC1c1ccc(O)cc1 (stereo not given)
Activity (Riparian frogs [5]): Dose-dependent effect
Activity (Riparian frogs [6]): Dose-dependent effect
Activity (Riparian frogs [7]): Active

Reference: ChEMBL document CHEMBL1137233, “Synthesis and cardiac effects of 3,4-dihydropyrimidin-2(1H)-one-5 carboxylates” (Bioorg Med Chem Lett, 2006)
